# Laboratory results from patent publication US7795278B2 (sanofi-aventis Deutschland GmbH, priority 2004, dated 2010).
# Experiments:
# [1] = target: recombinantly expressed human PARP-1 enzyme (Homo sapiens, UniProt P09874); experiment: PARP enzyme assay (half-maximum inhibitor concentration); type: biochemical; details: DNA-activated PARP-1, 200 μM NAD, tritium-labeled NAD incorporation, room temperature, 1 hour, pH 8.0
# Method: Pharmacological Investigations PARP Enzyme Assay
# The half-maximum inhibitor concentration is determined by incubating the substances to be tested with the DNA-activated, recombinantly expressed and purified PARP-1 enzyme. Specifically, various concentrations of the test substance are incubated in 50 μl of reaction solution, which contains 50 mM Tris, 5 mM MgCl2, 1 mM DTT, 200 μM NAD, 0.1 mCi/ml tritium-labeled NAD, 0.1 mg/ml DNA, 0.1 mg/ml histones, 2 μg/ml recombinantly expressed human PARP-1 enzyme, pH=8.0, at room temperature for 1 hour. The reaction is stopped by adding 150 μl of 20% trichloroacetic acid, and the radiolabeled protein constituents are precipitated. After incubation on ice for 10 minutes, the labeled, insoluble constituents are separated off through a glass fiber filter and, after washing with 20% trichloroacetic acid three times, the radioactivity incorporated by the PARP-1 enzyme is measured by radioluminescence.
# IC-50 values were determined in this way for the following compounds: […]
# [2] = tested on: rat cardiomyocytes (H9c2 cell line); experiment: ATP consumption assay in cardiomyoblasts; type: cell-based; details: H9c2 cells, 15 min preincubation, 300 μM H2O2 for 1 hour, cellular ATP content by luciferase reaction
# Method: ATP Consumption Assay in Cardiomyoblasts
# The activity of the test substances in cells is ascertained by means of an ATP consumption assay. For this purpose, rat cardiomyocytes (H9c2 cell line) are seeded in a 96-well plate (40 000 cells per well, RPMI1640; 10% FCS) and kept at 37° C. and 5% CO2 for 16 hours. The cells are washed with PBS and incubated under identical conditions with various concentrations of the test substance in medium for 15 min. After addition of 300 μM H2O2, the cells are kept at 37° C., 5% CO2 for a further hour and lysed, and the cellular content of ATP is determined by means of luciferase reaction. The half-maximum effective concentration of the substances (EC50) is determined as the concentration at which the ATP content of the cells has reached half the value which can be measured with a maximally effective concentration of the same substance.
# (§1) EC-50 values and apparent Ki values are determined in this way for all the following selected compounds: […]
# [3] = target: purified human PARP-1 enzyme (Homo sapiens, UniProt P09874); experiment: Enzyme inhibition assay with various substrate concentrations (apparent Ki); type: biochemical; details: various concentrations of tritium-labeled NAD, room temperature, 10 min; Michaelis-Menten, purely competitive inhibition assumed; read-out: app. Ki
# Method: Enzyme Inhibition Assay with Various Substrate Concentrations
# Apparent Ki values of the test substances are determined in an enzymatic assay using the purified human PARP-1 enzyme. Specifically, various concentrations of the tritium-labeled substrate NAD are incubated with an identical concentration of the test substance in 50 μl of reaction solution, which contains 50 mM tris, 5 mM MgCl2, 1 mM DTT, 0.1 mg/ml DNA, 0.1 mg/ml histones, 2 μg/ml recombinantly expressed human PARP-1 enzyme, pH=8.0, at room temperature for 10 min. The reaction is stopped by adding 150 μl of 20% trichloroacetic acid, and the radiolabeled protein constituents are precipitated. After incubation on ice for 10 minutes, the labeled, insoluble constituents are separated off through a glass fiber filter and, after washing with 20% trichloroacetic acid three times, the radioactivity incorporated by the PARP-1 enzyme is measured by radioluminescence. Evaluation of the incorporation rates determined in this way as a function of the concentration of the substrate NAD affords the apparent Ki values according to Michaelis-Menten kinetics, assuming that the mechanism of inhibition is purely competitive.
# as §1
# Chain of recombinantly expressed human PARP-1 enzyme (P09874 whole entry): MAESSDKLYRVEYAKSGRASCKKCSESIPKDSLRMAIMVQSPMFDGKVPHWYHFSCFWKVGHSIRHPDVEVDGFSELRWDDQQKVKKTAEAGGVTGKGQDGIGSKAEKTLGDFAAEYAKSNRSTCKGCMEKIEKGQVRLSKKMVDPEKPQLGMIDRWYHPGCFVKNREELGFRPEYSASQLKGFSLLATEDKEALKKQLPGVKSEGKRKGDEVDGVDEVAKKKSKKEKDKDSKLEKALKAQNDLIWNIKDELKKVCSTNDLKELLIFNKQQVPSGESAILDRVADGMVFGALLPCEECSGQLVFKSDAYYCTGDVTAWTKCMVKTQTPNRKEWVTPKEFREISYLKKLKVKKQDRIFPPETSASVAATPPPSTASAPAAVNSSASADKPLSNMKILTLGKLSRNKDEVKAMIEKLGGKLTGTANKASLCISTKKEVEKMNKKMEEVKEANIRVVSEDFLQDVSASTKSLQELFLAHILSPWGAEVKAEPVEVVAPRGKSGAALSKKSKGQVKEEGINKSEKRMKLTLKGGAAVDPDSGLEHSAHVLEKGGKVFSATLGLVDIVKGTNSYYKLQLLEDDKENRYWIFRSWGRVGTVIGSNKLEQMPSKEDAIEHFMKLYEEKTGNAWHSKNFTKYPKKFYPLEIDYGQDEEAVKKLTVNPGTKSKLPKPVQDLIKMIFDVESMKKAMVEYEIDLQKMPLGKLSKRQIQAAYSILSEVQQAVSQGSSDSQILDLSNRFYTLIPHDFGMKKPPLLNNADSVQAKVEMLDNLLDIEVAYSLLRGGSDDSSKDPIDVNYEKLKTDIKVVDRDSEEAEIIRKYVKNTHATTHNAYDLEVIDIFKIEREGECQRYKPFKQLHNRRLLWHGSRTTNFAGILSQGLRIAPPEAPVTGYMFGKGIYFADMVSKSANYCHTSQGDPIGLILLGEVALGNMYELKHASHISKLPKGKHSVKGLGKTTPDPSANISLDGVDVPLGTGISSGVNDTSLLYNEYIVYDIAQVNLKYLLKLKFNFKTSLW
# Chain of purified human PARP-1 enzyme (P09874 whole entry): as above
SMILES,IC50 [1],Ki [3],EC50 [2]
"CCCCNCc1ccc(-c2c[nH]c(=O)c3c2CCCC3)o1 [Example 78, 4-(5-butylaminomethylfuran-2-yl)-5,6,7,8-tetrahydro-2H-isoquinolin-1-one]",250 nM,40 nM,520 nM
"Cc1[nH]c(=O)c2c(c1-c1ccc(CN3CCCC3)o1)CCCC2 [Example 54, 3-methyl-4-(5-pyrrolidin-1-ylmethylfuran-2-yl)-5,6,7,8-tetrahydro-2H-isoquinolin-1-one]",300 nM,15 nM,330 nM
"O=C(NCCN1CCCC1)c1cccc(Nc2c[nH]c(=O)c3c2CCCC3)c1 [Example 24, 3-(1-Oxo-1,2,5,6,7,8-hexahydroisoquinolin-4-ylamino)-N-(2-pyrrolidin-1-ylethyl)benzamide]",220 nM,31 nM,–
"O=c1[nH]cc(-c2ccc(CNCC(O)c3ccccc3)o2)c2c1CCCC2 (centres unmarked) [Example 72, 4-{5-[(2-hydroxy-2-phenyl-ethylamino)methyl]furan-2-yl}-5,6,7,8-tetrahydro-2H-isoquinolin-1-one]",110 nM,24 nM,380 nM

# More lines, main results first:
IC50 [1],Ki [3],SMILES,EC50 [2]
90 nM,54 nM,"CC(=O)c1cccc(Nc2c(C)[nH]c(=O)c3c2CCCC3)c1 [Example 16, 4-(3-acetylphenylamino)-3-methyl-5,6,7,8-tetrahydro-2H-isoquinolin-1-one]",200 nM
280 nM,16 nM,"Cc1[nH]c(=O)c2c(c1-c1ccc(CO)o1)CCCC2 [Example 9, 4-(5-Hydroxymethylfuran-2-yl)-3-methyl-5,6,7,8-tetrahydro-2H-isoquinolin-1-one]",1570 nM
